PMC9102502, “The Influence of Selected Antipsychotic Drugs on Biochemical Aspects of Alzheimer’s Disease” (International Journal of Molecular Sciences, 2022)

Key:
HUVEC cells = experiment: WST-1 viability under AAPH-induced oxidative stress, HUVEC; format: cell-based, human; settings: AAPH 17.5 mmol/L; for viability of HUVEC under AAPH: relative to pure medium control
Description: (§1) WST-1 assay (Takara, Takara Bio Europe, Saint-Germain-en-Laye, France) was used to assess the effects of antipsychotics on the growth of HUVEC and astrocytes. The experiments were conducted as described previously. HUVEC were seeded at a density of 7500 cells, and astrocytes at 5000 cells per well on 96-well microplates and cultured for 24 h followed by treatment with compounds at ½ × TPCmax and TPCmax or pure medium as a control (v = 100 μL) for another 24 h (37 °C, 5% CO2). Subsequently, the cells were washed with culture medium (100 μL) and WST-1 reagent diluted in medium (10 μL of reagent + 90 μL of medium) was added. The plates were incubated at 37 °C in 5% CO2 for another 90 min for HUVEC and 60 min for astrocytes. The absorbance was read at 450 nm using a microplate reader (iMARK, Bio-Rad, Hercules, CA, USA). The cells viability was expressed as a percentage of the control samples which constituted 100% viability.
(§2) Moreover, the WST-1 assay was used to evaluate potential protective effects of antipsychotics on the growth of HUVEC and astrocytes under conditions of AAPH-induced oxidative stress. The experimental conditions were the same as in viability studies. AA at the final concentration of 10 μg/mL was used as an antioxidant control. After reaching the confluence, the antipsychotics were added at concentrations equaling ½ × TPCmax and TPCmax. After 1 h incubation under standard conditions, 50 μL AAPH was added to the wells containing tested compounds or AA. The AAPH concentration was chosen on the basis of preliminary experiments—17.5 mmol/L in HUVEC experiments, and 15.0 mmol/L in the case of astrocytes.

astrocytes = experiment: WST-1 viability under AAPH-induced oxidative stress, astrocytes; format: cell-based, human
Description: as §1, §2

AChE = AChE (Homo sapiens, UniProt P22303); experiment: Synergism of antipsychotics with donepezil/rivastigmine (binary mixtures), AChE; settings: for CI (combination index), AChE: ComboSyn;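 for all read-outs here: antipsychotic concentration kept fixed across all measurements, selected from estimated therapeutic plasma levels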
Description: (§6) In turn, the concentrations of antipsychotics were constant in every measurement, and were chosen on the basis of estimated therapeutic plasma concentrations.
(§7) Automatic simulation of synergism and antagonism at all doses or effect levels is possible by computer software, based on algorithms. Calculation of the combination index (CI) and isobologram analyses enable to quantitatively determine drug interactions, where CI < 1, =1 and >1 indicate synergism, additive effect and antagonism, respectively. […] The software also allowed us to display the dose–effect curve, the median–effect plot and the dose-reduction index (DRI) plot [36].

[1] = biological target: T1, human erythrocyte acetylcholinesterase (Homo sapiens, UniProt P22303); experiment: AChE inhibition, modified Ellman's method; format: biochemical
T1 construct: solution of hemolyzed erythrocytes diluted 400-fold; from tissue; host or cells: hemolyzed erythrocytes from blood of healthy human donors
Description: (§3) The activity of both cholinesterases (AChE and BuChE) were assessed spectrophotometrically according to the Ellman’s method with some modifications by Worek et al.. This test development included experimental determination of the optimal testing conditions. For all measurements, 37 °C was used as the best temperature for enzymatic determinations in material of human origin.
(§4) The solution of plasma 200-fold diluted with 0.9% NaCl and solution of hemolyzed erythrocytes diluted 400-fold with 0.9% were incubated (37 °C, 15 min) with 5 μL DTNB (0.01 mol/L) and 10 μL tested compound at a wider range of concentration than the therapeutic range in order to assess the overall effect of the compound on human esterases (AChE and BuChE). The controls without antipsychotics, containing only DTNB and diluted plasma or diluted solution of hemolyzed erythrocytes, were prepared. […] The final volume of a sample was 500 μL. […] The maximal velocity of the reaction was determined on the basis of changes in absorbance over time.
(§5) AChE SI (selectivity index) was calculated by using the following formula: SI = IC50 of BuChE/IC50 of AChE. However, BuChE SI was defined as IC50 of AChE/IC50 of BuChE. Maximal velocity (Vmax) and the Michaelis constant (Km) were calculated with the use of linear regression—according to the Hanes–Woolf plot.

BuChE = BuChE (Homo sapiens, UniProt P06276); experiment: Synergism of antipsychotics with donepezil/rivastigmine (binary mixtures), BuChE; settings: ComboSyn;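 note: combination index derived by median-effect analysis of combined drug effects on the cholinesterase, with values below 1 meaning synergism, exactly 1 additivity and above 1 antagonism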
Description: as §6, §7

[2] = biological target: T2, human plasma butyrylcholinesterase (Homo sapiens, UniProt P06276); experiment: BuChE inhibition, modified Ellman's method; format: biochemical
T2 construct: The solution of plasma 200-fold diluted with 0.9% NaCl; from tissue; host or cells: citrated plasma from blood of healthy human donors
Description: as §3, §4, §5

[3] = biological target: T3, recombinant human β-amyloid (1–42) (Homo sapiens, UniProt P05067); experiment: Beta-amyloid aggregation, Thioflavin T fluorescence; format: biochemical
T3 construct: recombinant human β-amyloid (1–42; ultrapure); purchased Sigma-Aldrich (St. Louis, MO, USA)
Description: Aβ42 peptide was dissolved in DMSO and left to hydrate for a few minutes. The solution was centrifuged at 10,000 rpm for 5 min at 4 °C to separate any precipitated material. The solution at a concentration of 220 μmol/L was stored in small aliquots at a temperature of −30 °C and before each experiment it was restored at 37 °C for 15 min. Test samples containing Aβ42 solution at the final concentration of 20 μmol/L was incubated with antipsychotics at concentrations equaling their TPC and 1/2 × TPC (v = 10 µL). The final volume of the test samples was 100 μL. The positive control constituted a sample of Aβ42 peptide, whereas the negative control contained tannic acid at the final concentrations of 0.1 µmol/L and 10 µmol/L. The fibrillation reaction was set up by addition of thioflavin ThT dye at a concentration of 5 µmol/L. The fluorescence intensity was measured at room temperature with Ex/Em = 440 nm/484 nm (Synergy H1; BioTek, Winooski, VT, USA). The measurements of fluorescence intensity expressed as relative fluorescence units (RFU) were taken at 10, 30, 60 and 90 min and then after 24 and 48 h. The fluorescence intensity measured for control equaled 100% of Aβ aggregation and it was used to estimate the inhibitory properties of the tested antipsychotics.

[4] = donepezil 0.005 μmol/L + antipsychotic at TPCmax, CI < 1 synergism, > 1 antagonism
[5] = donepezil 0.01 μmol/L + antipsychotic at TPCmax
[6] = donepezil 0.02 μmol/L + antipsychotic at TPCmax
[7] = donepezil 0.05 μmol/L + antipsychotic at TPCmax
[8] = donepezil 0.1 μmol/L + antipsychotic at TPCmax
[9] = rivastigmine 5 μmol/L + antipsychotic at TPCmax
[10] = rivastigmine 10 μmol/L + antipsychotic at TPCmax
[11] = rivastigmine 15 μmol/L + antipsychotic at TPCmax
[12] = rivastigmine 25 μmol/L + antipsychotic at TPCmax
[13] = rivastigmine 40 μmol/L + antipsychotic at TPCmax
[14] = rivastigmine 75 μmol/L + antipsychotic at TPCmax
[15] = rivastigmine 100 μmol/L + antipsychotic at TPCmax
[16] = donepezil 2 μmol/L + antipsychotic at TPCmax
[17] = donepezil 5 μmol/L + antipsychotic at TPCmax
[18] = donepezil 10 μmol/L + antipsychotic at TPCmax
[19] = donepezil 20 μmol/L + antipsychotic at TPCmax
[20] = donepezil 50 μmol/L + antipsychotic at TPCmax
[21] = donepezil 100 μmol/L + antipsychotic at TPCmax
[22] = rivastigmine 0.05 μmol/L + antipsychotic at TPCmax
[23] = rivastigmine 0.1 μmol/L + antipsychotic at TPCmax
[24] = rivastigmine 0.25 μmol/L + antipsychotic at TPCmax
[25] = rivastigmine 0.5 μmol/L + antipsychotic at TPCmax
[26] = rivastigmine 0.75 μmol/L + antipsychotic at TPCmax
[27] = rivastigmine 1 μmol/L + antipsychotic at TPCmax
[28] = rivastigmine 2.5 μmol/L + antipsychotic at TPCmax

BuChE, sequence (P06276 29-602): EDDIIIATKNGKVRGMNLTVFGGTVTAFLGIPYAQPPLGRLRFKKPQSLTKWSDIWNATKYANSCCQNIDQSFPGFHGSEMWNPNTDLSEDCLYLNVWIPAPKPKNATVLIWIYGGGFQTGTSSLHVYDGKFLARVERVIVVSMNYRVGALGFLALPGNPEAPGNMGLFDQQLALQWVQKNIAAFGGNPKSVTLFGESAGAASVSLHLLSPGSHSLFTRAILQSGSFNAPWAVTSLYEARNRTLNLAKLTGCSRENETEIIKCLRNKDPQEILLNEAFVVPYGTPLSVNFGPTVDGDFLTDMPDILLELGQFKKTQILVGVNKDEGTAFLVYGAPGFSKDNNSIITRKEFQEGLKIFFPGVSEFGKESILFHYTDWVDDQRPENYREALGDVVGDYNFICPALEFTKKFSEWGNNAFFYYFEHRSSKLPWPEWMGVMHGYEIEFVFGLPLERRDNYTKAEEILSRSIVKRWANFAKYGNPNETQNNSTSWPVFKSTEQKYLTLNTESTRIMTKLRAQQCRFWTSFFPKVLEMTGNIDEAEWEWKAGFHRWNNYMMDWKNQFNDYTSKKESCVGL
T2 sequence (P06276 29-602): as above
AChE, sequence (P22303 32-617 isoform P22303-2 limits assumed): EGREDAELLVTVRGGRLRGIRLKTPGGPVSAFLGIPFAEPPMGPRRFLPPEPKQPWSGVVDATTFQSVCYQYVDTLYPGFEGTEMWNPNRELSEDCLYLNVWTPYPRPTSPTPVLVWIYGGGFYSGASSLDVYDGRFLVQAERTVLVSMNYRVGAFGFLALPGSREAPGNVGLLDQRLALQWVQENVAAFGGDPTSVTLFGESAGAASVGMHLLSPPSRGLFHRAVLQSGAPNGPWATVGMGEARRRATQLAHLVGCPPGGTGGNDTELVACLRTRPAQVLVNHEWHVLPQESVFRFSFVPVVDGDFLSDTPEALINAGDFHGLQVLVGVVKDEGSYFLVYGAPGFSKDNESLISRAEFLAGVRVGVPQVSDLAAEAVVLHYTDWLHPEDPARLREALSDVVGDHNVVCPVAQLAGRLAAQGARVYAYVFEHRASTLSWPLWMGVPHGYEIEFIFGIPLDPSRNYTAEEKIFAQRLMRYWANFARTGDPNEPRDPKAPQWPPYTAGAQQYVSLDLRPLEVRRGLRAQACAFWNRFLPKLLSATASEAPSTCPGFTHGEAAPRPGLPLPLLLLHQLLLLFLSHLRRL
T3 sequence (P05067 672-713 limits assumed): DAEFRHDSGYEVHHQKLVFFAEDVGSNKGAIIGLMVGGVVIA
T1 sequence (P22303 32-617 isoform P22303-2 limits assumed): as the sequence (P22303 32-617 isoform P22303-2 limits assumed) above

Compound	CI (combination index), AChE (AChE; [4])	CI (combination index), AChE (AChE; [5])	CI (combination index), AChE (AChE; [6])	CI (combination index), AChE (AChE; [7])	CI (combination index), AChE (AChE; [8])	CI (combination index), AChE (AChE; [9])	CI (combination index), AChE (AChE; [10])	CI (combination index), AChE (AChE; [11])	CI (combination index), AChE (AChE; [12])	CI (combination index), AChE (AChE; [13])	CI (combination index), AChE (AChE; [14])	CI (combination index), AChE (AChE; [15])	CI (combination index), BuChE (BuChE; [16])	CI (combination index), BuChE (BuChE; [17])	CI (combination index), BuChE (BuChE; [18])	CI (combination index), BuChE (BuChE; [19])	CI (combination index), BuChE (BuChE; [20])	CI (combination index), BuChE (BuChE; [21])	CI (combination index), BuChE (BuChE; [22])	CI (combination index), BuChE (BuChE; [23])	also measured
O=C1O[C@H]([C@@H](O)CO)C(O)=C1O [AA, ascorbic acid]	–	–	–	–	–	–	–	–	–	–	–	–	–	–	–	–	–	–	–	–	viability at 10 µg/mL (HUVEC cells; Homo sapiens, HUVEC, 10 μg/mL): 81 ± 3.4%; viability at 10 µg/mL (astrocytes; Homo sapiens, Astrocyte, 10 μg/mL, AAPH 15 mmol/L): 72.9%
O=C(CCCN1CCC(O)(c2ccc(Cl)cc2)CC1)c1ccc(F)cc1 [Haloperidol, haloperidol]	> 2.50	> 2.50	> 2.50	0.37	0.09	0.39	0.55	0.60	0.70	0.71	0.86	0.82	0.71	0.67	0.79	0.77	0.84	0.87	0.61	0.44	CI (combination index), AChE (AChE; rivastigmine 50 μmol/L + antipsychotic at TPCmax): 0.79; effect on AChE activity ([1]; therapeutic concentrations): do not affect; CI (combination index), BuChE (BuChE; [24]): 0.67; CI (combination index), BuChE (BuChE; [25]): 0.87; CI (combination index), BuChE (BuChE; [26]): 1.06; CI (combination index), BuChE (BuChE; [27]): 1.03; CI (combination index), BuChE (BuChE; [28]): 1.19; CI (combination index), BuChE (BuChE; [9]): 1.22; decrease of BuChE activity ([2]; 100 µg/L): 9.6 ± 2.3%; BuChE reaction velocity ([2]; 100 µg/L, control 0.252 ± 0.022 A/min): 0.228 ± 0.021 A/min; effect on BuChE activity ([2]; therapeutic concentrations): do not affect; effect on Aβ aggregation within 90 min of incubation ([3]; both tested concentrations (½ TPC and TPC)): ceases to significantly inhibit
OC1(c2ccc(Cl)c(C(F)(F)F)c2)CCN(CCCC(c2ccc(F)cc2)c2ccc(F)cc2)CC1 [Penfluridol, penfluridol]	0.79	0.80	0.93	0.89	0.90	> 2.50	0.75	0.73	0.92	0.97	1.06	1.06	1.21	0.98	1.04	1.03	1.14	1.21	0.64	0.68	Effect on IC50 AChE of rivastigmine (AChE; binary mixture vs pure rivastigmine ([…]), ↓ lower, ↑ higher IC50, - no change): does not affect; AChE reaction velocity [1]: 0.226 ± 0.012 A/min; CI (combination index), BuChE (BuChE; [24]): 0.79; CI (combination index), BuChE (BuChE; [25]): 1.01; CI (combination index), BuChE (BuChE; [26]): 1.08; CI (combination index), BuChE (BuChE; [27]): 1.13; CI (combination index), BuChE (BuChE; [28]): 1.28; CI (combination index), BuChE (BuChE; [9]): 1.17; viability of HUVEC under AAPH (HUVEC cells; TPC (bromperidol 25 μg/L, quetiapine 400 μg/L)): 82.9%; viability of HUVEC under AAPH (HUVEC cells; ½ × TPC (bromperidol 12.5 μg/L, quetiapine 200 μg/L)): 80.5%; astrocyte viability compared with the control (pure AAPH) (astrocytes; benperidol 5 and 10 μg/L, penfluridol 12.5 μg/L, pimozide 15 μg/L, promazine 25 and 50 μg/L): statistically significant increase; effect on Aβ aggregation within 10–90 min ([3]; 25 µg/L, at any of these time points): does not inhibit
